Laboratory results from patent EP0768085A1, “ANTIBACTERIAL AGENT” (DAIICHI PHARMACEUTICAL CO., LTD., priority 1994, dated 1996).
≈ marks a conversion by molar mass, not a printed value.

What was measured:
Type in all cases: cell-based
[1] = system: Staphylococcus aureus 209-P; assay: Antibacterial activity (IC), Mueller-Hinton broth, 96-well microplate (Example 4, Table 39); settings: 37°C, 18 hours
Procedure: (§1) A suitable amount of a sample was dissolved in dimethylsulfoxide (DMSO), and the resultant solution was diluted with the same amount of sterilized distilled water to prepare a bulk sample of 1,000 µg/ml. Mueller-Hinton broth (product of DIFCO) was dispensed into each well of 96-well microplate. Thereafter, the bulk specimen was added to the first well of a row, and successively diluted (10-fold each time) with sterilized distilled water. Separately, a bacterial cell suspension for the test (Staphylococcus aureus 209-P) which had been cultured in the above-mentioned broth overnight at 37°C was inoculated to each well so that the final inoculation amount of 10^6 CFU/ml was attained. The final concentrations of the samples were 100, 10, and 1 µg/ml.
(§2) The antibacterial action was evaluated by the inhibitory concentration (hereinafter abbreviated as IC) at which propagation of the bacteria cultured at 37°C for 18 hours was inhibited. Inhibition was determined by the turbidity of the medium. The expressions "IC≤100", "≤10", and "≤1" indicate that MIC-equivalent values obtained at the succesive […] dilution of the sample are 100-10 µg/ml, 10-1 µg/ml, and not more than 1 µg/ml, respectively. […] (In the subsequent Examples, the same rule applies correspondingly.) Table 39

[2] = system: Pasteurella multocida (Kobe-6); assay: Antibacterial activity (IC), broth microplate as in Example 4 (Example 6, Table 41); settings: 18 h, origin pig
Procedure: as §1, §2
In a manner similar to that described in Example 4, antibacterial activity of the invention compound was determined. The bacterium used for the test was Pasteurella Kobe-6 (origin: pig; Pasteurella multocida).

[3] = system: Staphylococcus aureus TI-1; assay: Antibacterial activity (IC), broth microplate as in Example 4 (Example 5, Table 40); settings: TI1, 18 h
Procedure: as §1, §2
In a manner similar to that described in Example 4, antibacterial activity of the invention compound was determined. The bacterium used for the test was Staphylococcus aureus TI-1.

[4] = system: Pasteurella from fish; assay: Antibacterial activity (IC), agar as in Example 8, media with 1.5% NaCl, 25°C (Example 20, Tables 53-55); settings: for MIC: Pasteurella piscicida KP94-02
Procedure: as §2
(§3) A suitable amount of a sample was dissolved in dimethylsulfoxide (DMSO), after which the resulting solution was diluted with the same amount of sterilized distilled water to prepare a bulk sample of 1,000 µg/ml. Separately, a bacterial liquid for the test (methicillin-resistant Staphylococcus aureus (MRSA) isolated from humans) which had been cultured in Mueller-Hinton broth (product of DIFCO) was prepared and inoculated to a Mueller-Hinton agar (product of DIFCO) containing the sample so that the final inoculation amount of 10^6 CFU/ml was achieved. The final concentrations of the samples were 100, 10, and 1 µg/ml.
(§4) After culturing at 37°C for 18 hours, the antibacterial activity was evaluated in terms of IC in a manner similar to that described in Example 4.
(§5) In a manner similar to that described in Example 8, antibacterial activity of a variety of ketonitrile derivatives shown in Tables 53-55 was measured. The bacteria used for the test were Enterococcus and Pasteurella from fish. The culture conditions were such that the media contained 1.5% NaCl, and the culture temperature was 25°C.

[5] = system: Enterococcus from fish; assay: as above; settings: for MIC: Enterococcus Seriolicida SE94-002
Procedure: as §2, §3, §4, §5

[6] = system: Staphylococcus aureus (209-P); assay: Antibacterial activity (IC), agar as in Example 8 (Example 15, Table 48); settings: 18 h
Procedure: as §2, §3, §4
The bacterium used for the test was Staphylococcus aureus (209-P).

[7] = system: methicillin-resistant Staphylococcus aureus (MRSA) from humans; assay: Antibacterial activity (IC), agar as in Example 8 (Example 19, Table 52); settings: 18 h
Procedure: as §2, §3, §4
In a manner similar to that described in Example 8, antibacterial activity of a variety of ketonitrile derivatives shown in Table 52 was measured. The bacterium used for the test was methicillin-resistant Staphylococcus aureus (MRSA) from humans.

[8] = system: Pasteurella multocida (Kobe-6); assay: Antibacterial activity (IC), agar as in Example 8 (Example 17, Table 50); settings: 18 h, origin pig
Procedure: as §2, §3, §4
In a manner similar to that described in Example 8, antibacterial activity of the invention compound was determined. The bacterium used for the test was Pasteurella Kobe-6 (origin: pig, Pasteurella multocida).

[9] = system: Streptococcus aureus (TI-1); assay: Antibacterial activity (IC), agar as in Example 8 (Example 16, Table 49); settings: 18 h
Procedure: as §2, §3, §4
In a manner similar to that described in Example 8, antibacterial activity of the invention compound was determined. The bacterium used for the test was […] aureus (TI-1).

[10] = Enterococcus Seriolicida KG86050
[11] = Enterococcus Seriolicida MS89060
[12] = Enterococcus Seriolicida MS89064
[13] = Enterococcus Seriolicida MS89066
[14] = Enterococcus Seriolicida MS89068
[15] = Enterococcus Seriolicida SE94-001
[16] = Enterococcus Seriolicida SE94-003
[17] = Enterococcus Seriolicida SE94-004
[18] = Enterococcus Seriolicida SE94-005

Compound | MIC [1] [µg/mL] | MIC [2] [µg/mL] | MIC [3] [µg/mL] | MIC [4] [µg/mL] | IC ([4]; Pasteurella piscicida KP94-04) | IC ([4]; Pasteurella piscicida KP94-05) | IC ([4]; Pasteurella piscicida KP94-06) | IC ([5]; Enterococcus Seriolicida HI) | IC [5, 10] | IC [5, 11] | IC [5, 12] | IC [5, 13] | IC [5, 14] | IC [5, 15] | MIC [5] [µg/mL] | IC [5, 16] | IC [5, 17] | IC [5, 18] | MIC [6] [µg/mL] | MIC ([7]; MRSA strain 891179) [µg/mL] | also measured
CCC(Oc1ccc(Oc2ncc(C(F)(F)F)cc2Cl)cc1)C(=O)C(C#N)c1ccc(Cl)cc1Cl (stereo not drawn) [Compound No. 15] | 1 to 10 (≈ 1.84 to 18.4 µM) | 10 to 100 (≈ 18.4 to 184 µM) | 1 to 10 (≈ 1.84 to 18.4 µM) | – | – | – | – | – | – | – | – | – | – | – | – | – | – | – | – | – | –
CC(Oc1cc(Oc2ccc(C(F)(F)F)cc2Cl)cc(Oc2ccc(C(F)(F)F)cc2Cl)c1)C(=O)C(C#N)c1cccc(Br)c1 (stereo not drawn) [compound 211] | – | – | – | 10 to 100 (≈ 13.6 to 136 µM) | ≤100 (MIC-equivalent values obtained at the succesive 2-fold dilution of the sample are 100-10 µg/ml) | ≤100 (MIC-equivalent values obtained at the succesive 2-fold dilution of the sample are 100-10 µg/ml) | ≤100 (MIC-equivalent values obtained at the succesive 2-fold dilution of the sample are 100-10 µg/ml) | ≤10 (10-1 µg/ml) | ≤10 (10-1 µg/ml) | ≤10 (10-1 µg/ml) | ≤10 (10-1 µg/ml) | ≤10 (10-1 µg/ml) | ≤10 (10-1 µg/ml) | ≤10 (10-1 µg/ml) | 1 to 10 (≈ 1.36 to 13.6 µM) | ≤10 (10-1 µg/ml) | ≤10 (10-1 µg/ml) | ≤10 (10-1 µg/ml) | 1 to 10 (≈ 1.36 to 13.6 µM) | 1 to 10 (≈ 1.36 to 13.6 µM) | MIC ([7]; MRSA strain 891185): 1 to 10 µg/mL (≈ 1.36 to 13.6 µM); MIC ([7]; MRSA strain 891187): 1 to 10 µg/mL (≈ 1.36 to 13.6 µM); MIC ([7]; MRSA strain 891192): 1 to 10 µg/mL (≈ 1.36 to 13.6 µM); MIC ([7]; MRSA strain 900048): 1 to 10 µg/mL (≈ 1.36 to 13.6 µM); MIC ([7]; MRSA strain 900056): 1 to 10 µg/mL (≈ 1.36 to 13.6 µM); MIC [8]: 1 to 10 µg/mL (≈ 1.36 to 13.6 µM); MIC [9]: 1 to 10 µg/mL (≈ 1.36 to 13.6 µM)
COc1cc(Oc2ccc(C(F)(F)F)cc2Cl)cc(OC(C)C(=O)C(C#N)c2ccc(Cl)c(Cl)c2)c1 (stereo not drawn) [compound 209] | – | – | – | 10 to 100 (≈ 17.9 to 179 µM) | ≤100 (MIC-equivalent values obtained at the succesive 2-fold dilution of the sample are 100-10 µg/ml) | ≤100 (MIC-equivalent values obtained at the succesive 2-fold dilution of the sample are 100-10 µg/ml) | ≤100 (MIC-equivalent values obtained at the succesive 2-fold dilution of the sample are 100-10 µg/ml) | ≤10 (10-1 µg/ml) | ≤10 (10-1 µg/ml) | ≤10 (10-1 µg/ml) | ≤10 (10-1 µg/ml) | ≤10 (10-1 µg/ml) | ≤10 (10-1 µg/ml) | ≤10 (10-1 µg/ml) | 1 to 10 (≈ 1.79 to 17.9 µM) | ≤10 (10-1 µg/ml) | ≤10 (10-1 µg/ml) | ≤10 (10-1 µg/ml) | 1 to 10 (≈ 1.79 to 17.9 µM) | 1 to 10 (≈ 1.79 to 17.9 µM) | MIC ([7]; MRSA strain 891185): 1 to 10 µg/mL (≈ 1.79 to 17.9 µM); MIC ([7]; MRSA strain 891187): 1 to 10 µg/mL (≈ 1.79 to 17.9 µM); MIC ([7]; MRSA strain 891192): 1 to 10 µg/mL (≈ 1.79 to 17.9 µM); MIC ([7]; MRSA strain 900048): 1 to 10 µg/mL (≈ 1.79 to 17.9 µM); MIC ([7]; MRSA strain 900056): 1 to 10 µg/mL (≈ 1.79 to 17.9 µM); MIC [8]: 1 to 10 µg/mL (≈ 1.79 to 17.9 µM); MIC [9]: 1 to 10 µg/mL (≈ 1.79 to 17.9 µM)

Continued, in another order:

MIC [1] [µg/mL] | MIC [2] [µg/mL] | MIC [3] [µg/mL] | Compound | MIC [4] [µg/mL] | IC ([4]; Pasteurella piscicida KP94-04) | IC ([4]; Pasteurella piscicida KP94-05) | IC ([4]; Pasteurella piscicida KP94-06) | IC ([5]; Enterococcus Seriolicida HI) | IC [5, 10] | IC [5, 11] | IC [5, 12] | IC [5, 13] | IC [5, 14] | IC [5, 15] | MIC [5] [µg/mL] | IC [5, 16] | IC [5, 17] | IC [5, 18] | MIC [6] [µg/mL] | MIC ([7]; MRSA strain 891179) [µg/mL] | also measured
10 to 100 (≈ 20.1 to 201 µM) | 10 to 100 (≈ 20.1 to 201 µM) | 1 to 10 (≈ 2.01 to 20.1 µM) | CC(Oc1ccc(Oc2ncc(Cl)cc2Cl)cc1)C(=O)C(C#N)c1nc(Cl)cc(Cl)n1 (stereo not drawn) [compound 20] | – | – | – | – | – | – | – | – | – | – | – | – | – | – | – | – | – | –
1 to 10 (≈ 2.02 to 20.2 µM) | 10 to 100 (≈ 20.2 to 202 µM) | 1 to 10 (≈ 2.02 to 20.2 µM) | CC(Oc1ccc(Oc2ccc(C(F)(F)F)cn2)cc1)C(=O)C(C#N)c1ccc(Cl)cc1Cl (stereo not drawn) [Compound No. 1] | – | – | – | – | – | – | – | – | – | – | – | – | – | – | – | – | – | –
1 to 10 (≈ 1.88 to 18.8 µM) | 10 to 100 (≈ 18.8 to 188 µM) | 1 to 10 (≈ 1.88 to 18.8 µM) | CC(Oc1ccc(Oc2ccc(C(F)(F)F)cc2Cl)cc1)C(=O)C(C#N)c1nc(Cl)cc(Cl)n1 (stereo not drawn) [compound 22] | – | – | – | – | – | – | – | – | – | – | – | – | – | – | – | – | – | –
